Laboratory results reported in PubChem BioAssay (NCI).
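Briefly, cells in 96-well plates were exposed to five compound concentrations for 48 h, and endpoints were estimated by linear interpolation. GI50: concentration for 50% inhibition of growth. TGI denotes the concentration required for complete inhibition of growth.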

Columns and labels:
Test in all cases: growth of human tumour cells (NCI), 48 h
ACHN renal = tested on: ACHN renal
CCRF-CEM leukemia = tested on: CCRF-CEM leukemia
KM12 colon = tested on: KM12 colon
M14 melanoma = tested on: M14 melanoma
NCI-H226 lung = tested on: NCI-H226 lung
RPMI-8226 leukemia = tested on: RPMI-8226 leukemia
SK-MEL-5 melanoma = tested on: SK-MEL-5 melanoma
SR leukemia = tested on: SR leukemia
NCI/ADR-RES ovarian = tested on: NCI/ADR-RES ovarian
SK-MEL-2 melanoma = tested on: SK-MEL-2 melanoma

Compound | TGI (ACHN renal) | TGI (CCRF-CEM leukemia) | TGI (KM12 colon) | TGI (M14 melanoma) | TGI (NCI-H226 lung) | TGI (RPMI-8226 leukemia) | TGI (SK-MEL-5 melanoma) | TGI (SR leukemia) | TGI (NCI/ADR-RES ovarian) | TGI (SK-MEL-2 melanoma) | GI50 (ACHN renal) | GI50 (CCRF-CEM leukemia) | GI50 (KM12 colon) | GI50 (M14 melanoma) | GI50 (NCI-H226 lung) | GI50 (NCI/ADR-RES ovarian) | GI50 (RPMI-8226 leukemia) | GI50 (SK-MEL-2 melanoma) | GI50 (SK-MEL-5 melanoma)
COC(=O)C1Cc2c([nH]c3ccccc23)C=N1 (stereo unspecified) | > 100 µM | > 100 µM | > 100 µM | > 100 µM | > 100 µM | > 100 µM | > 100 µM | > 100 µM |  |  |  |  |  |  |  |  |  |  | 
O=C(/C=N/O)c1c(-c2ccccc2)[nH]c(-c2ccccc2)c1-c1ccccc1 | 43.4 µM | > 100 µM | 28.2 µM | 73.6 µM | 83.4 µM | 31.4 µM | 32.8 µM |  | 25.5 µM | 24 µM |  |  |  |  |  |  |  |  | 
Cc1cc(Cl)ccc1NC(=O)C1C(=O)N(c2ccc(Cl)cc2C)C(=O)/C1=N\N (stereo unspecified) | > 100 µM | > 100 µM | > 100 µM | > 100 µM | 93.8 µM | > 100 µM | > 100 µM | > 100 µM |  | 90.9 µM |  |  |  |  |  |  |  |  | 
O=C(/C=C/c1ccccc1F)C(c1ccccc1)c1ccccc1 | 7.66 µM | 6.32 µM | 15 µM | 6.81 µM | 25.3 µM | > 100 µM |  | 41.9 µM |  | 6.15 µM |  |  |  |  |  |  |  |  | 
N#CC(C#N)=C1NC(=O)C(c2ccccc2)C(=O)N1 (stereo unspecified) |  | > 100 µM | > 100 µM | > 100 µM | > 100 µM | > 100 µM | > 100 µM | > 100 µM |  |  |  |  |  |  |  |  |  |  | 
COc1nc2c(nc(N)n2C2OC(CO)C(O)C(O)C2O)c(=O)n1C (stereo unspecified) | > 100 µM | > 100 µM | > 100 µM | > 100 µM | > 100 µM |  | > 100 µM | > 100 µM |  |  |  |  |  |  |  |  |  |  | 
CCCCCCCCCCCCC(Br)C(=O)SCCNC(=O)CCNC(=O)[C@@H](O)C(C)(C)COP(=O)(O)OP(=O)(O)OCC1OC(n2cnc3c(N)ncnc32)C(O)C1OP(=O)(O)O (stereo partly specified) | > 56.5 µM | > 56.5 µM | > 56.5 µM | > 56.5 µM | > 56.5 µM |  | > 56.5 µM |  |  | > 56.5 µM |  |  |  |  |  |  |  |  | 
CNCCNc1nc2ccccc2c2c(=O)c3cccc(OC)c3sc12 | 2.3 µM | 3.2 µM | 3.11 µM | 3.01 µM | 3.49 µM | 3.28 µM | 3.04 µM |  | 2.84 µM | 3.62 µM | 1.01 µM | 1.43 µM | 1.62 µM | 1.59 µM | 1.61 µM | 1.23 µM | 1.43 µM | 1.78 µM | 1.65 µM
COC(=O)/C(C#N)=C1\N=NNN1CCCc1ccccc1 | > 100 µM | > 100 µM | > 100 µM | > 100 µM | > 100 µM | > 100 µM | > 100 µM |  |  |  |  |  |  |  |  |  |  |  | 
CC(CN(CP(=O)([O-])[O-])CP(=O)([O-])[O-])N(CP(=O)([O-])[O-])CP(=O)([O-])[O-].N[C@@H]1CCCC[C@@H]1N.[Pt+2] (stereo unspecified) | > 100 µM | > 100 µM | > 100 µM | > 100 µM | > 100 µM | > 100 µM | > 100 µM |  |  | > 100 µM | > 100 µM | > 100 µM | > 100 µM | > 100 µM | > 100 µM |  | > 100 µM | > 100 µM | > 100 µM
Cc1cc2c(=O)cc(-c3ccc(Cl)cc3)oc2c(C(=O)O)c1C | > 100 µM | > 100 µM | > 100 µM | > 100 µM | > 100 µM | > 100 µM | > 100 µM |  |  | > 100 µM |  |  |  |  |  |  |  |  | 
C/C=C/C1(NS(=O)(=O)c2ccc(C)cc2)CCC(C(C)(C)C)CC1 (stereo unspecified) | > 100 µM | 43.2 µM | 39 µM | 35.1 µM | 44.4 µM | 47.1 µM | 31.8 µM | 32.9 µM |  | 34.8 µM |  |  |  |  |  |  |  |  | 
O=C1c2cccnc2-c2nc(-c3ccc([N+](=O)[O-])cc3)cc3c2c1nc1ccccc13 | 30 µM |  | 19.4 µM | 4.43 µM | 33.4 µM | 71.5 µM | 2.45 µM |  | 10.3 µM | 26.5 µM | 5.03 µM |  | 3.35 µM | 1.9 µM | 9.63 µM | 2.44 µM | 8.88 µM | 3.3 µM | 0.825 µM
CCOc1ccc(NC(=O)C2=C(C)NC(C)=C(C(=O)Nc3ccc(OCC)cc3)C2c2ccc([N+](=O)[O-])cc2)cc1 | 87.4 µM | 90.8 µM | > 100 µM | > 100 µM | > 100 µM | 64.2 µM | 74.3 µM |  |  | 45.7 µM |  |  |  |  |  |  |  |  | 
C[Si](C)(C)/C(Br)=C\CCN1C(=O)CCC1O (stereo unspecified) | > 100 µM | > 100 µM | > 100 µM | > 100 µM | > 100 µM | > 100 µM |  |  |  | > 100 µM |  |  |  |  |  |  |  |  | 
CC(C)(C)c1cc(C(O)(C(F)(F)F)C(F)(F)F)c2c(c1)C(C(F)(F)F)(C(F)(F)F)OC(c1ccccc1)(C(C)(C)C)N2 (stereo unspecified) | 14 µM |  | 17.6 µM | 12.3 µM | 9.32 µM | 12.1 µM | 10.3 µM | 6.69 µM |  | 19.7 µM |  |  |  |  |  |  |  |  | 
Cc1ccc(Cl)cc1Nc1nc(C(F)(F)F)ccc1C(=O)Oc1ccc(Cl)cc1 | 18 µM | 24.4 µM | 63.6 µM | > 100 µM | 36.1 µM | > 100 µM | 26.8 µM |  | 46.6 µM | > 100 µM | 5.16 µM | 7.68 µM | 21.6 µM | 18.1 µM | 12.1 µM | 15.6 µM | 28.6 µM | 17.7 µM | 7.01 µM
Cc1ccccc1NC(=O)c1[nH]c(=S)nc(N)c1-c1ccccc1C | > 100 µM | > 100 µM | > 100 µM | > 100 µM | > 100 µM | > 100 µM | > 100 µM | > 100 µM |  | > 100 µM |  |  |  |  |  |  |  |  | 
Cc1cc(Cl)ccc1N1C(=O)C(=O)C(c2nc3ccccc3s2)C(=O)C1=O | > 100 µM | > 100 µM | > 100 µM | > 100 µM | > 100 µM | > 100 µM | > 100 µM | > 100 µM |  | > 100 µM |  |  |  |  |  |  |  |  | 
O=C1C(c2ccccc2)=C(c2ccccc2)C(c2ccccc2)/C1=C1\C(=O)C(c2ccccc2)=C(c2ccccc2)C1c1ccccc1 (stereo unspecified) | > 100 µM |  | > 100 µM | > 100 µM | > 100 µM | > 100 µM | > 100 µM | > 100 µM |  | > 100 µM |  |  |  |  |  |  |  |  | 
O=S1(=O)CSc2ccc3ccccc3c2-c2c1ccc1ccccc21 | > 100 µM | > 100 µM | > 100 µM | > 100 µM |  |  | > 100 µM | > 100 µM |  |  |  |  |  |  |  |  |  |  | 
COc1cc(/C=C/C(=O)c2ccc(Nc3nc(Nc4ccc(F)cc4)nc(Nc4ccc(F)cc4)n3)cc2)cc(OC)c1OC | > 100 µM | > 100 µM | > 100 µM | 90.8 µM | 29.3 µM | 35.2 µM | 30.4 µM |  | > 100 µM | 33.2 µM | 21.2 µM | 2.35 µM | 8.79 µM | 6.55 µM | 3.8 µM | 4.69 µM | 1.81 µM | 3.99 µM | 3.4 µM
CC1=C(C(=O)Nc2ccc(F)c(Cl)c2)C(c2cccc(Cl)c2)NC(=O)N1 (stereo unspecified) | 46.4 µM | 58.2 µM | 38.7 µM | 31.7 µM | 48.2 µM | 46.9 µM | 26.9 µM |  | 67.6 µM | 30.5 µM | 18.3 µM | 21.2 µM | 20.6 µM | 15.8 µM | 18.1 µM | 27.5 µM | 16.3 µM | 15.7 µM | 13.6 µM
CC(C)(C)c1ccccc1NS(=O)(=O)c1ccccc1 | > 100 µM | > 100 µM | > 100 µM | > 100 µM | 88.2 µM | > 100 µM | > 100 µM |  |  | > 100 µM |  |  |  |  |  |  |  |  | 
O=c1c2ccccc2nc(-c2ccc(Cl)cc2)n1O | 65 µM | 59.8 µM | > 100 µM | > 100 µM | > 100 µM | > 100 µM | > 100 µM |  | 58.2 µM |  |  |  |  |  |  |  |  |  | 
O=C(OCCOCCOC(=O)c1c[nH]cc1-c1ccccc1)c1c[nH]cc1-c1ccccc1 |  | > 100 µM | 44.7 µM | 28.2 µM | 48.9 µM | 56.9 µM | 30.5 µM | 55.6 µM |  |  |  |  |  |  |  |  |  |  | 
N#Cc1c2ccccc2c2nnc3cc(Cl)c(Cl)cc3n12 | 52.8 µM | > 100 µM | > 100 µM | > 100 µM |  | > 100 µM | > 100 µM |  | 97.8 µM | > 100 µM | 19.9 µM | 85.4 µM | > 100 µM | > 100 µM |  | 31.6 µM | 29.6 µM | 60.7 µM | 84.2 µM
CC1SC(c2cccs2)N(NC(=O)C(O)c2ccccc2)C1=O (stereo unspecified) | > 100 µM | > 100 µM | > 100 µM | > 100 µM | > 100 µM | > 100 µM | > 100 µM |  |  | > 100 µM | > 100 µM | > 100 µM | > 100 µM | > 100 µM | > 100 µM |  | > 100 µM | > 100 µM | > 100 µM
COc1ccc2c(CNCCCCO)cc3cc4c(cc3c2c1)OCO4 | 3.7 µM | 10.9 µM | 7.33 µM | 4.68 µM | 1.62 µM | 3.77 µM | 2.13 µM |  | 8.12 µM | 3.93 µM | 0.891 µM | 0.777 µM | 1.83 µM | 2.07 µM | 0.638 µM | 1.45 µM | 0.655 µM | 1.63 µM | 0.818 µM
